Assay [1] has as its system Insulin-regulated aminopeptidase (Homo sapiens). Briefly: Inhibition of recombinant human IRAP at 300 uM using L-AMC as substrate preincubated for 30 mins followed by substrate addition and measured after 1 hr by fluorescence based assay. The following applies: time 90.0 min.
Assay [2] addresses T1, Endoplasmic reticulum aminopeptidase 1 (Homo sapiens, UniProt Q9NZ08). Briefly: Inhibition of recombinant human ERAP1 using L-AMC as substrate preincubated for 30 mins followed by substrate addition and measured after 1 hr by fluorescence based assay.
Assay [3] deals with T1, Endoplasmic reticulum aminopeptidase 1. Briefly: Inhibition of recombinant human ERAP1 using L-AMC as substrate at 4 uM preincubated for 30 mins followed by substrate addition and measured after 1 hr by fluorescence based assay relative to control. The following applies: time 90.0 min.
Assay [4] shares this target. The experiment in a line: Inhibition of recombinant human ERAP1 using L-AMC as substrate at 90 uM preincubated for 30 mins followed by substrate addition and measured after 1 hr by fluorescence based assay relative to control. The conditions noted are these: time 90.0 min.
For assay [5], the target named is Endoplasmic reticulum aminopeptidase 2 (Homo sapiens) (UniProt Q6P179). The experiment in a line: Inhibition of recombinant human ERAP2 at 90 uM using R-AMC as substrate preincubated for 30 mins followed by substrate addition and measured after 1 hr by fluorescence based assay relative to control. The conditions noted are these: time 90.0 min.
Chain of Endoplasmic reticulum aminopeptidase 2 (Homo sapiens) (Q6P179 whole entry): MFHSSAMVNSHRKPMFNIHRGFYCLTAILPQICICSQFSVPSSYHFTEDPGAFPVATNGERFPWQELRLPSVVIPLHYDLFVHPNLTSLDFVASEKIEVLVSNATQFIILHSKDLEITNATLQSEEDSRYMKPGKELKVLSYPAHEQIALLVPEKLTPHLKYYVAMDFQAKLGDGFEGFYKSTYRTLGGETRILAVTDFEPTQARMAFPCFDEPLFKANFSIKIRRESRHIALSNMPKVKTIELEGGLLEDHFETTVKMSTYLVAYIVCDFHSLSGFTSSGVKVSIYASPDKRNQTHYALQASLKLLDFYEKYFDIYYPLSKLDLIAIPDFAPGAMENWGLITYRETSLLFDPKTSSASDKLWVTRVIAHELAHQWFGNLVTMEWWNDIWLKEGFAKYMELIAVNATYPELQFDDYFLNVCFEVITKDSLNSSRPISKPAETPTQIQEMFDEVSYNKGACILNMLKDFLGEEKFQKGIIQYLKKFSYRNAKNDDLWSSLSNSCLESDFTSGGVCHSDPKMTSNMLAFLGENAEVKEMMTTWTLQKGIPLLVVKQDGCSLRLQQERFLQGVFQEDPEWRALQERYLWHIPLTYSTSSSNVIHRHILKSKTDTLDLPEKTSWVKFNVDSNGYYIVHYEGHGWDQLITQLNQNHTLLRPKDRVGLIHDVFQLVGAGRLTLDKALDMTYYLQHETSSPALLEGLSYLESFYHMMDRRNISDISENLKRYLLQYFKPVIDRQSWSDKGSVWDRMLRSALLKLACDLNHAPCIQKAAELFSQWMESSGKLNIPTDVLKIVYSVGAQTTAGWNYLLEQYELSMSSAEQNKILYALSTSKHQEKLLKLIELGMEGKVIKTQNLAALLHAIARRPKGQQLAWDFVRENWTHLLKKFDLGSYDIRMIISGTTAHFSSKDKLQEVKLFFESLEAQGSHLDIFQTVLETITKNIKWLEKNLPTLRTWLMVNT
The target in assay [6] is T1, Endoplasmic reticulum aminopeptidase 1. Briefly: Inhibition of human ERAP1 using L-SIINFEKL as substrate by LC-MS/MS method.
Assay [7] concerns the target Endoplasmic reticulum aminopeptidase 2 (Homo sapiens) (UniProt Q6P179). The experiment in a line: Inhibition of recombinant human ERAP2 at 300 uM using R-AMC as substrate preincubated for 30 mins followed by substrate addition and measured after 1 hr by fluorescence based assay relative to control. The following applies: time 90.0 min.

Bounds are passed on as bounds.

T1 sequence (Q9NZ08 whole entry): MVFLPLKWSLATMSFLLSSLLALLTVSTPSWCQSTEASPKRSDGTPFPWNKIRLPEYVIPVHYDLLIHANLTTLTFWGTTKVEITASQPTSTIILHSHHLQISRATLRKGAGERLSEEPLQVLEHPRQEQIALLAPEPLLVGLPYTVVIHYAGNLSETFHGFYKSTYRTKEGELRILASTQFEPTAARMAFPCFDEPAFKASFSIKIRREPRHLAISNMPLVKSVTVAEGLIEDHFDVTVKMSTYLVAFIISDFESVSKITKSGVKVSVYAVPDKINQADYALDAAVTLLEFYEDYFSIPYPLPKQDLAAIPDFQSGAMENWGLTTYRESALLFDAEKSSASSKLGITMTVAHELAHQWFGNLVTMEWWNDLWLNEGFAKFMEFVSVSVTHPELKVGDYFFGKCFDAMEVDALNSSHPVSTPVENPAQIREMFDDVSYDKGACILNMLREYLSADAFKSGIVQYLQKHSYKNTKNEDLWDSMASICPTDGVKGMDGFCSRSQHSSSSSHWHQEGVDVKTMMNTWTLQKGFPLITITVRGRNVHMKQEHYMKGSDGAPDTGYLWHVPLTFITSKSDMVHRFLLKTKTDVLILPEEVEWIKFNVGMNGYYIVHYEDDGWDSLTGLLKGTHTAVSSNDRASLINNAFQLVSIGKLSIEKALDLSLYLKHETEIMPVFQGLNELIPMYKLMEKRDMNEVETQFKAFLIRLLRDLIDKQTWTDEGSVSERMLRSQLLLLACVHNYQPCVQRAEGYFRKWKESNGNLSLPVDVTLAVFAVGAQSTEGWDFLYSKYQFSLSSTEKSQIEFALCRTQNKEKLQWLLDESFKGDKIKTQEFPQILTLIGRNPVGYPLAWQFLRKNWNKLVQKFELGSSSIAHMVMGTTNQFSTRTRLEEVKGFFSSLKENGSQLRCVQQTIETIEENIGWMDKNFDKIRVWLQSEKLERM

As usually defined, the inhibition is the share of the control response that was lost under treatment. Take `O=C1NC(=O)/C(=C/c2ccc(C(=O)O)cc2)N1`: the inhibition in assay [1] stood at 30%.

The IC50 is the concentration needed to halve the response being measured. Turning to `O=c1[nH]c(=S)[nH]c(O)c1-c1ccccc1`, the IC50 in assay [2] is 82.6 µM.

Regarding `CN1C(=O)S/C(=C\c2ccc(C(=O)O)cc2)C1=O`, in assay [1], the inhibition amounted to 47%.

Consider `O=C1NC(=O)C(Cc2ccc(C(=O)O)cc2)S1` (centres undefined), for which the inhibition in assay [1] is 30%.

For the compound `CC(C)C[C@H](NC(=O)[C@@H](O)[C@H](N)Cc1ccccc1)C(=O)O`, the results for the inhibition in assay [3], in assay [4] and in assay [5] were 100%, 100% and 50%, respectively.

As for `O=C1NC(=S)S/C1=C\c1ccc(C(=O)O)cc1`, the IC50 in assay [6] came out at 28.6 µM; in assay [2] it was 19.5 µM.

As to `O=C1NC(=O)/C(=C/c2ccc(C(=O)O)cc2)S1`, the inhibition in assay [1] amounted to 38%.

In the case of `O=C(O)Cc1ccc(S(=O)(=O)N2CCCCC2)s1`, the inhibition is 38% in assay [7] and 58% in assay [1].

On to `Nc1[nH]cnc2nc(S)nc1-2`, for which the 50% inhibitory concentration (IC50) amounted to 10.3 µM in assay [6] and 2.2 µM in assay [2].

As for `CN1C(=O)/C(=C/c2ccc(C(=O)O)cc2)SC1=S`, the inhibition worked out at 43% in assay [7] and 51% in assay [1].

As to `COC(=O)c1ccc(/C=C2\SC(=S)NC2=O)cc1`, the inhibition in assay [1] was less than 30%.

On to `O=C(O)c1ccc(CC2SC(=S)NC2=O)cc1` (centres undefined), for which the inhibition in assay [7] and in assay [1] was less than 30% in each case.

`O=C(O)Cc1cccc(S(=O)(=O)N2CCCC2)c1`: the inhibition in assay [1] is less than 30%.

Turning to `COc1ccc(Cc2c(O)nc(S)nc2O)cc1`, the IC50 in assay [2] came to 58.3 µM.

Turning to `O=C(O)Cc1ccc(S(=O)(=O)N2CCCC2)s1`, in assay [1], the inhibition came out at 62%. Moreover, the IC50 in assay [2] amounted to 27.2 µM.

Take `COC(=O)c1ccc(CC2SC(=S)NC2=O)cc1` (centres undefined): the inhibition in assay [1] was less than 30%.

Source of the values: ChEMBL document CHEMBL6092161, “First fragment-based screening identifies new chemotypes inhibiting ERAP1-metalloprotease” (Eur J Med Chem, 2024).
